According to PubChem BioAssay (NCI):
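Growth conditions: 96-well plates. Treatment: test compound, 48 hours, 5 concentrations. Analysis: linear interpolation between bracketing concentrations; unreached endpoints set to highest concentration. The concentration for 50% growth inhibition is given as GI50. At the TGI there is no net growth.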

What was measured:
Assay in all cases: NCI-60 cell line screen, 48 h
OVCAR-3 ovarian = tested on: OVCAR-3 ovarian
SNB-19 CNS = tested on: SNB-19 CNS
CAKI-1 renal = tested on: CAKI-1 renal
A549 NSCLC = tested on: A549 NSCLC
HCT-15 colon = tested on: HCT-15 colon
CCRF-CEM leukemia = tested on: CCRF-CEM leukemia
UO-31 renal = tested on: UO-31 renal
SR leukemia = tested on: SR leukemia
RXF 393 renal = tested on: RXF 393 renal
SNB-75 CNS = tested on: SNB-75 CNS

Structure (SMILES)	GI50 (OVCAR-3 ovarian)	TGI (OVCAR-3 ovarian)	GI50 (SNB-19 CNS)	TGI (SNB-19 CNS)	GI50 (CAKI-1 renal)	TGI (CAKI-1 renal)	GI50 (A549 NSCLC)	TGI (A549 NSCLC)	GI50 (HCT-15 colon)	TGI (HCT-15 colon)	GI50 (CCRF-CEM leukemia)	TGI (CCRF-CEM leukemia)	GI50 (UO-31 renal)	TGI (UO-31 renal)	GI50 (SR leukemia)	TGI (SR leukemia)	GI50 (RXF 393 renal)	TGI (RXF 393 renal)	TGI (SNB-75 CNS)	GI50 (SNB-75 CNS)
Oc1ccccc1-c1nn(CNc2ccccc2Cl)c(=S)o1	89.7 µM	> 100 µM	> 100 µM	> 100 µM	> 100 µM	> 100 µM	> 100 µM	> 100 µM	17.9 µM	38.7 µM	20.1 µM	55.4 µM	> 100 µM	> 100 µM	25.2 µM	89.6 µM	> 100 µM	> 100 µM	–	–
Cc1nc(C(N)=S)sc1C(=O)/C=C/c1c(O)ccc2ccccc12	–	> 84.3 µM	–	> 100 µM	–	> 100 µM	–	> 100 µM	–	> 100 µM	–	54.5 µM	–	> 100 µM	–	–	–	98.5 µM	> 100 µM	–
O=C1CCCCN1CCCCC#Cc1cccc(C#Cc2cccnc2)c1	22.6 µM	71.4 µM	13 µM	27.2 µM	35.5 µM	> 100 µM	18.4 µM	60.6 µM	3.96 µM	17.7 µM	30.9 µM	> 100 µM	5.97 µM	23 µM	–	–	–	–	20.4 µM	4.05 µM
C/C(=N\NC(=O)CC#N)c1c(O)cc(C)oc1=O	–	–	–	> 100 µM	–	> 100 µM	–	> 100 µM	–	> 100 µM	–	> 100 µM	–	> 100 µM	–	> 100 µM	–	–	> 100 µM	–
O=C(O)c1ccc(C2C(=O)N[C@@H]3CCC[C@H]23)cc1 (some centres undefined)	–	> 100 µM	–	> 100 µM	–	> 100 µM	–	> 100 µM	–	> 100 µM	–	> 100 µM	–	> 100 µM	–	–	–	> 100 µM	> 100 µM	–
O=[N+]([O-])c1ccc(-c2ccc(-c3csc(Nc4ccccc4)n3)o2)cc1	–	33.7 µM	–	> 65.8 µM	–	39.5 µM	–	> 100 µM	–	42.5 µM	–	16.9 µM	–	39 µM	–	4.76 µM	–	–	> 56.8 µM	–
CC(C)(C)C(=O)[CH-]C(=O)C(C)(C)C.CC(C)(C)C(=O)[CH-]C(=O)C(C)(C)C.CN(C)c1ccc([O-])cc1.CN(C)c1ccc([O-])cc1.[Ti+4]	96.2 µM	> 100 µM	–	–	> 100 µM	> 100 µM	> 100 µM	> 100 µM	> 100 µM	> 100 µM	> 100 µM	> 100 µM	> 100 µM	> 100 µM	–	–	14.4 µM	> 100 µM	> 100 µM	26.1 µM
CC(=O)c1ccc(O)c(CN(C2CCCCC2)C2CCCCC2)c1O	–	> 100 µM	–	> 100 µM	–	> 100 µM	–	> 100 µM	–	> 100 µM	–	1.88 µM	–	> 100 µM	–	–	–	> 100 µM	> 100 µM	–
O=C(O)[C@@H](Cc1ccc2ccccc2c1)NC(=O)n1c2ccccc2c2ccccc21	1.81 µM	6.78 µM	3.57 µM	17 µM	3.54 µM	46.2 µM	4.36 µM	> 100 µM	3.29 µM	28.6 µM	0.77 µM	18 µM	5.18 µM	45.5 µM	4.12 µM	> 100 µM	1.57 µM	7.15 µM	–	–
Cc1ccccc1NC(=O)C1C(=O)N(c2ccccc2C)C(=O)/C1=N\NC(N)=S (centres undefined)	–	> 100 µM	–	> 100 µM	–	> 100 µM	–	> 100 µM	–	–	–	> 100 µM	–	> 100 µM	–	> 100 µM	–	–	> 100 µM	–
CCCCN(CCCC)C(=O)/C(CC(=O)c1cccc2ccccc12)=N\NC(=O)c1cc2ccccc2cc1O	–	53.3 µM	–	> 100 µM	–	–	–	64.8 µM	–	–	–	25.3 µM	–	37.3 µM	–	–	–	63 µM	92.7 µM	–
O=c1c(F)cn(Cc2ccccc2CCl)c(=O)n1Cc1ccccc1CCl	1.54 µM	3.07 µM	3.5 µM	13.3 µM	1.71 µM	3.58 µM	1.83 µM	4.29 µM	1.83 µM	4.45 µM	1.04 µM	3.5 µM	1.99 µM	5.3 µM	0.796 µM	3.07 µM	–	–	6.36 µM	1.97 µM
COc1cc(NCCCCCCCNC(C)C)c2nccc(C)c2c1	2.96 µM	8.89 µM	16 µM	30 µM	12.2 µM	25.6 µM	18.8 µM	38.3 µM	12.2 µM	27.3 µM	12.1 µM	33 µM	7.41 µM	23 µM	–	–	15.4 µM	33.7 µM	24.3 µM	11.7 µM
COC(=O)C1(O)CC(=O)CCC1c1ccc(OC)cc1 (centres undefined)	–	> 100 µM	–	> 100 µM	–	> 100 µM	–	> 100 µM	–	> 100 µM	–	> 100 µM	–	> 100 µM	–	> 100 µM	–	–	> 100 µM	–
CC(=O)OC(Cn1cncn1)(Cn1cncn1)c1ccc(Cl)cc1Cl	–	> 100 µM	–	> 100 µM	–	> 100 µM	–	> 100 µM	–	> 100 µM	–	> 100 µM	–	> 100 µM	–	–	–	> 100 µM	> 100 µM	–
Cc1ccc(NC(=O)c2cc(S(=O)(=O)N3C(=O)NC(=O)NS3(=O)=O)c(S)cc2Cl)cc1	16.5 µM	36.4 µM	69.5 µM	> 100 µM	30.6 µM	60.9 µM	35.1 µM	> 100 µM	33.2 µM	> 100 µM	15.9 µM	40.3 µM	27.8 µM	> 100 µM	–	–	11.5 µM	54.5 µM	> 100 µM	91.6 µM
Cn1c2c(c3ccccc31)CCN(CCN1CCN(c3cccc(Cl)c3)CC1)C2=O	–	–	–	–	–	–	–	> 100 µM	–	> 100 µM	–	> 100 µM	–	> 100 µM	–	–	–	> 100 µM	–	–
Cc1c2ccccc2cc2ccc3oc([N+](=O)[O-])cc3c12	–	> 100 µM	–	> 100 µM	–	> 100 µM	–	> 100 µM	–	> 100 µM	–	> 100 µM	–	> 100 µM	–	–	–	> 100 µM	> 100 µM	–
CCOC(=O)NC(=O)c1cn(CCN2CCN(C(=O)CCCCCCCCCCC(=O)N3CCN(CCn4cc(C(=O)NC(=O)OCC)c(=O)[nH]c4=O)CC3)CC2)c(=O)[nH]c1=O	–	> 100 µM	–	> 100 µM	–	> 100 µM	–	> 100 µM	–	–	–	> 100 µM	–	> 100 µM	–	> 100 µM	–	–	> 100 µM	–
O=c1oc2ccccc2[n+]([O-])c1-c1ccccc1	–	> 100 µM	–	> 100 µM	–	> 100 µM	–	> 100 µM	–	> 100 µM	–	> 100 µM	–	> 100 µM	–	–	–	> 100 µM	> 100 µM	–
CCOC(=O)C(NC(=O)c1nc[nH]c1[N+](=O)[O-])C(C)C (centres undefined)	–	> 100 µM	–	> 100 µM	–	> 100 µM	–	> 100 µM	–	> 100 µM	–	> 100 µM	–	> 100 µM	–	> 100 µM	–	–	> 100 µM	–
COc1ccc(C(=O)c2ccc([As]=O)cc2)cc1 (centres undefined)	0.0345 µM	0.114 µM	0.0932 µM	0.236 µM	0.064 µM	0.201 µM	0.158 µM	0.348 µM	0.0259 µM	0.11 µM	0.0296 µM	0.171 µM	0.0696 µM	0.204 µM	–	–	0.059 µM	0.188 µM	0.417 µM	0.126 µM
COC(=O)C1(C(=O)OC)CC(=O)c2cc3c(cc2-c2c(cc(OC)c(OC)c2OC)C1)OCO3	–	> 211 µM	–	> 211 µM	–	> 211 µM	–	> 211 µM	–	> 211 µM	–	> 211 µM	–	–	–	> 211 µM	–	> 211 µM	–	–
CC(=O)/C(=C/c1ccccc1F)C(=O)c1ccccc1	–	58.8 µM	–	> 100 µM	–	> 100 µM	–	> 100 µM	–	> 100 µM	–	–	–	> 100 µM	–	–	–	46 µM	> 100 µM	–
O=C(/C=C/c1ccccc1)CC(=O)CCC(=O)Nc1ccc(Cl)cc1	–	> 100 µM	–	> 100 µM	–	> 100 µM	–	> 100 µM	–	> 100 µM	–	> 100 µM	–	> 100 µM	–	–	–	–	–	–
N/N=C1\C(=O)N(CCc2ccccc2)C(=O)C1C(=O)NCCc1ccccc1 (centres undefined)	–	> 100 µM	–	> 100 µM	–	> 100 µM	–	> 100 µM	–	–	–	> 100 µM	–	> 100 µM	–	> 100 µM	–	–	> 100 µM	–
CCOC(=O)c1cc2c3c(c(O)c(OC)c2s1)N(C(=O)c1cc2c4c(c(O)c(OC)c2s1)N(C(C)=O)CC4)CC3	–	> 100 µM	–	> 100 µM	–	> 100 µM	–	> 100 µM	–	–	–	> 100 µM	–	> 100 µM	–	–	–	> 100 µM	67.1 µM	–
CCNC(=O)COc1ccc(Cl)cc1Cl	–	> 100 µM	–	> 100 µM	–	> 100 µM	–	> 100 µM	–	> 100 µM	–	–	–	> 100 µM	–	> 100 µM	–	–	> 100 µM	–
O=c1c2cc(Br)ccc2nc(CCl)n1-c1ccc(O)c([N+](=O)[O-])c1	–	33 µM	–	–	–	49.3 µM	–	52.3 µM	–	41.2 µM	–	52.9 µM	–	29.9 µM	–	–	–	25.7 µM	44 µM	–
Cc1c(C(=O)O)oc2ccc([N+](=O)[O-])cc12	–	> 100 µM	–	> 100 µM	–	> 100 µM	–	> 100 µM	–	> 100 µM	–	> 100 µM	–	> 100 µM	–	–	–	–	–	–
